Test results: ChEMBL document CHEMBL1201862, “PubChem BioAssay data set” (2004)
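Step 1: Grow cells in 96-well plates. Step 2: Expose to compound for 48 hours at 5 concentrations. Step 3: Interpolate endpoints linearly; if unreached, use highest concentration. Here, GI50 denotes the concentration required for 50% inhibition of growth.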 Calls of active or inactive are those of the source. Cut-off read from the data, not from the text of the source: active = GI50 up to about 1.1 µM and inactive = higher.

Columns and labels:
Experiment in all cases: NCI anticancer screen, dose series, 48 h
786-0 = system: 786-0
DU-145 = system: DU-145
HCT-116 = system: HCT-116
HCT-15 = system: HCT-15
HOP-62 = system: HOP-62
IGROV-1 = system: IGROV-1
KM12 = system: KM12
LOX IMVI = system: LOX IMVI
MDA-MB-435 = system: MDA-MB-435
Malme-3M = system: Malme-3M
NCI-H226 = system: NCI-H226
NCI-H460 = system: NCI-H460
OVCAR-5 = system: OVCAR-5
RPMI-8226 = system: RPMI-8226
RXF 393 = system: RXF 393
SF-268 = system: SF-268
T47D = system: T47D
TK-10 = system: TK-10
UACC-62 = system: UACC-62
UO-31 = system: UO-31

| SMILES | GI50 (786-0) | GI50 (DU-145) | GI50 (HCT-116) | GI50 (HCT-15) [µM] | GI50 (HOP-62) | GI50 (IGROV-1) | GI50 (KM12) | GI50 (LOX IMVI) | GI50 (MDA-MB-435) | GI50 (Malme-3M) | GI50 (NCI-H226) | GI50 (NCI-H460) | GI50 (OVCAR-5) | GI50 (RPMI-8226) | GI50 (RXF 393) | GI50 (SF-268) | GI50 (T47D) | GI50 (TK-10) | GI50 (UACC-62) | GI50 (UO-31) |
| --- | --- | --- | --- | --- | --- | --- | --- | --- | --- | --- | --- | --- | --- | --- | --- | --- | --- | --- | --- | --- |
| O=C1c2cccc([N+](=O)[O-])c2C(=O)N1c1ncn[nH]1 | 58.1 µM (inactive) | > 100 µM (inactive) | > 100 µM (inactive) | > 100 | 38.9 µM (inactive) | > 100 µM (inactive) | > 100 µM (inactive) | > 100 µM (inactive) | > 100 µM (inactive) | > 100 µM (inactive) | 81.8 µM (inactive) | > 100 µM (inactive) | > 100 µM (inactive) | > 100 µM (inactive) | 63.2 µM (inactive) | 37 µM (inactive) | > 100 µM (inactive) | 27.2 µM (inactive) | > 100 µM (inactive) | > 100 µM (inactive) |
| CNc1c2cccc(C)c2nc2c(C(=O)NCCN(C)C)cccc12 | 0.104 µM (active) | 0.0946 µM (active) | 0.0377 µM (active) | 0.115 | 0.164 µM (active) | 0.0483 µM (active) | 0.127 µM (active) | 0.112 µM (active) | 0.152 µM (active) | 0.169 µM (active) | 0.116 µM (active) | 0.0435 µM (active) | 0.162 µM (active) | 0.0604 µM (active) | 0.0716 µM (active) | 0.0445 µM (active) | 0.162 µM (active) | 0.128 µM (active) | 0.167 µM (active) | 0.2 µM (active) |
| N=C(N)N/N=C/c1c(-c2ccc([N+](=O)[O-])cc2)nc2sc(Cl)cn12 | 0.212 µM (active) | 1.11 µM (active) | 0.223 µM (active) | 0.312 | 0.635 µM (active) | 1.78 µM (inactive) | 0.809 µM (active) | 0.871 µM (active) | 0.902 µM (active) | 1.47 µM (inactive) | 1.76 µM (inactive) | 1.73 µM (inactive) | 1.21 µM (inactive) | 1.32 µM (inactive) | 0.67 µM (active) | 1.42 µM (inactive) | 0.92 µM (active) | 2.05 µM (inactive) | 1.6 µM (inactive) | 0.979 µM (active) |
| O=CC1C(Cl)=Nc2nc3ccccc3n2C1c1ccccc1 (stereo not given) | 15.6 µM (inactive) | 16 µM (inactive) | 22.1 µM (inactive) | 16.2 | 18.1 µM (inactive) | 15.9 µM (inactive) | 23.4 µM (inactive) | 15.5 µM (inactive) | 38.5 µM (inactive) | 23.9 µM (inactive) | 20.2 µM (inactive) | 55.2 µM (inactive) | 23.2 µM (inactive) | 14 µM (inactive) | 13.7 µM (inactive) | 16.8 µM (inactive) | 17.1 µM (inactive) | 26.3 µM (inactive) | 24.7 µM (inactive) | 14.7 µM (inactive) |
| O=C(NC(Cc1c[nH]c2ccccc12)C(=O)O)/C(=C/c1ccccc1)NC(=O)c1ccccc1 (stereo not given) | > 100 µM (inactive) | 79.8 µM (inactive) | > 80.4 µM (inactive) | > 55.1 | 41.3 µM (inactive) | 32.1 µM (inactive) | 57.9 µM (inactive) | > 100 µM (inactive) | 78.9 µM (inactive) | 22.5 µM (inactive) | > 100 µM (inactive) | 68.1 µM (inactive) | 56.1 µM (inactive) | 32.4 µM (inactive) | 34.8 µM (inactive) | > 100 µM (inactive) | 36.2 µM (inactive) | > 72.8 µM (inactive) | 41.2 µM (inactive) | 53.2 µM (inactive) |
| O=[N+]([O-])C(=C(N1CCOCC1)N1CCOCC1)/C(Cl)=C(\Cl)[N+](=O)[O-] | 3.69 µM (inactive) | 7.45 µM (inactive) | 2 µM (inactive) | 2.7 | 15.7 µM (inactive) | 1.41 µM (inactive) | 16.3 µM (inactive) | 2.15 µM (inactive) | 10.3 µM (inactive) | 1.68 µM (inactive) | 47 µM (inactive) | 25.2 µM (inactive) | 14.6 µM (inactive) | 2.31 µM (inactive) | 1.77 µM (inactive) | 10.6 µM (inactive) | 1.96 µM (inactive) | 1.99 µM (inactive) | 16.6 µM (inactive) | 6.71 µM (inactive) |
